ChEMBL document CHEMBL5321235, “Design, synthesis, and SAR study of novel flavone 1,2,4-oxadiazole derivatives with anti-inflammatory activities for the treatment of Parkinson's disease” (Eur J Med Chem, 2023)
Calls of active or inactive are those of the source. No cut-off for these calls is given here.

How the values were obtained:
BV-2 [1] = assay: Antiinflammatory activity in mouse BV-2 cells assessed as inhibition of LPS-induced NO production at 5 uM pretreated for 18 hrs followed by LPS-induction and measured after 6 hrs relative to control; format: functional; design: scale not given: the % may be the effect or the level left; conditions: time 24 hrs
BV-2 [2] = assay: Inhibition of LPS-induced ROS production in mouse BV-2 cells at 5 uM pretreated for 18 hrs followed by LPS-stimulation and measured after 6 hrs by fluorescence microscopic analysis; format: functional, cell-based; conditions: time 24.0 hrs
BV-2 [3] = assay: Cytotoxicity against mouse BV-2 cells assessed as reduction in cell viability at 5 uM pretreated for 18 hrs followed by LPS-stimulation and measured after 6 hrs by MTT assay; format: toxicity, cell-based; conditions: bv-2, 24 h

## COc1ccccc1-c1noc(-c2cccc3c(=O)c(C)c(-c4ccccc4)oc23)n1
BV-2 [1]
  Activity: 41.6%
BV-2 [2]
  inhibition: inactive

## Cc1ccccc1-c1noc(-c2cccc3c(=O)c(C)c(-c4ccccc4)oc23)n1
BV-2 [1]
  Activity: 22.4%
BV-2 [2]
  inhibition: Active

## Cc1c(-c2ccccc2)oc2c(-c3nc(-c4ccc(Br)cc4)no3)cccc2c1=O
BV-2 [3]
  Activity: Non-Toxic
BV-2 [1]
  Activity: 41.6%
BV-2 [2]
  inhibition: Active

## Cc1c(-c2ccccc2)oc2c(-c3nc(-c4ccsc4)no3)cccc2c1=O
BV-2 [2]
  inhibition: Active

## Cc1c(-c2ccccc2)oc2c(-c3nc(-c4cccc(F)c4)no3)cccc2c1=O
BV-2 [1]
  Activity: 22.4%
BV-2 [2]
  inhibition: Active

## Cc1c(-c2ccccc2)oc2c(-c3nc(-c4ccccc4Br)no3)cccc2c1=O
BV-2 [1]
  Activity: 41.6%
BV-2 [2]
  inhibition: Active

## Cc1c(-c2ccccc2)oc2c(-c3nc(-c4ccccc4F)no3)cccc2c1=O
BV-2 [1]
  Activity: 41.6%
BV-2 [2]
  inhibition: Active

## COc1cccc(-c2noc(-c3cccc4c(=O)c(C)c(-c5ccccc5)oc34)n2)c1
BV-2 [1]
  Activity: 22.4%
BV-2 [2]
  inhibition: inactive

## COc1ccc(-c2noc(-c3cccc4c(=O)c(C)c(-c5ccccc5)oc34)n2)cc1
BV-2 [1]
  Activity: 22.4%
BV-2 [2]
  inhibition: Active
